Series [1] deals with T1, human VPAC2 (Homo sapiens, UniProt P41587).
T1 construct: expressed in transfected cells
T1 sequence (P41587 24-438): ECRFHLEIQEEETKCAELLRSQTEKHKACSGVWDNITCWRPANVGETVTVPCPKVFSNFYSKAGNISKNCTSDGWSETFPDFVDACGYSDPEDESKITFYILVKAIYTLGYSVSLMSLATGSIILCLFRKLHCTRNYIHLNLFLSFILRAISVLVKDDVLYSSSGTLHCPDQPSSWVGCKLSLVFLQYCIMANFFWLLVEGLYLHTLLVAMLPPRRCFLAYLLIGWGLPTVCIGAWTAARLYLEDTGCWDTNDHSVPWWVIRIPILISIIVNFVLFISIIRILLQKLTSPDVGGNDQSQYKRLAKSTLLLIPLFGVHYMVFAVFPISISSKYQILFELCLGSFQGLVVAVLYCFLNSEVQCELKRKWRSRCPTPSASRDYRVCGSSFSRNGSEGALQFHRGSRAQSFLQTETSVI
Nature of the series: DiscoveRx cAMP in vitro potency, CHO-S cell line stably expressing human VPAC2 receptor. In kind it is cell-based. The note with it: cAMP generation; mean of two independent runs. The procedure: (§1) Also, the cells are washed twice. The cells are incubated in assay buffer plus IBMX for 15 minutes at room temperature. […] The stimuli are present for 30 minutes. Then, the assay buffer is gently removed. […] At day 3, the assay described above for the VPAC2 receptor cell line is performed.

Series [2] concerns the target T1, human VPAC2. Nature of the series: Filter binding assay, membranes of stable VPAC2 cell line, 125I-labeled VIP tracer (Table 2). The note with it: read-out: Human VPAC2 Receptor Binding. An outline of the steps:
(§2)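 Scintillation counting of filter-retained radioligand gave the read-out. Compounds competed with the labelled tracer (about 40000 cpm) for 2.5 μg membranes during 1 hour of shaking in HEPES pH 7.4 buffer containing 0.5% BSA.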

The next series concerns the target T2, human VPAC1 (Homo sapiens, UniProt P32241).
T2 sequence (P32241 31-457): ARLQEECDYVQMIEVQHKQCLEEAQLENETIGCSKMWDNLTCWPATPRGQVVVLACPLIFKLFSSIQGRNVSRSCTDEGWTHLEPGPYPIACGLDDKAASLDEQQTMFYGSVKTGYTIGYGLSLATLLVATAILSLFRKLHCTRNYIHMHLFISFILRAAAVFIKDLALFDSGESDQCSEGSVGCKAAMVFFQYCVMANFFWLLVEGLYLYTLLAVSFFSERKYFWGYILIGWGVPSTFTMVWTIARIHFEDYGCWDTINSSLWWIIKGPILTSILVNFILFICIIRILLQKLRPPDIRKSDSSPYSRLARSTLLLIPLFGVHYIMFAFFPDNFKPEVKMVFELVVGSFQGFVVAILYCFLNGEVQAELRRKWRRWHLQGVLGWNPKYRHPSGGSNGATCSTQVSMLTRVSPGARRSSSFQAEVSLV
Nature of the series: Filter binding assay, membranes of cells transiently transfected with human VPAC1, 125I-labeled VIP tracer (Table 2). The note with it: read-out: Human VPAC1 Receptor Binding. Also on record: expressed in transfected cells. An outline of the steps:
as §2

In series [3] the target is T3, human PAC1 (Homo sapiens, UniProt P41586).
T3 sequence (P41586 21-468): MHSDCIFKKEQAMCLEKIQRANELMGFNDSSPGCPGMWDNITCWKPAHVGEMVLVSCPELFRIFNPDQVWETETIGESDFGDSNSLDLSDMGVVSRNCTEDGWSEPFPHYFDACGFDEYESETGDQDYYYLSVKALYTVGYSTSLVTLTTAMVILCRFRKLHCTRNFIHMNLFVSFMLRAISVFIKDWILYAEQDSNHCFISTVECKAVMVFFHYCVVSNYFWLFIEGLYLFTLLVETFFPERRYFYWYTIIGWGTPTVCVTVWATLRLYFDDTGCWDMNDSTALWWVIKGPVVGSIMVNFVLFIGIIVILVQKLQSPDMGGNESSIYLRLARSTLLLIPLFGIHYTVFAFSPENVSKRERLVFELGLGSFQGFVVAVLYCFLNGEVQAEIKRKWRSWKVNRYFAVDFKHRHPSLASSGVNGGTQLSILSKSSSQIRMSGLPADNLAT
As to the kind of experiment: DiscoveRx cAMP in vitro potency, CHO-PO cells transiently transfected with human PAC1 receptor. In kind it is cell-based. Also on record: expressed in transfected cells; host or cells: CHO-PO, transient (Lipofectamine). The note with it: cAMP generation; mean of two independent runs; read-out: Human PAC1 Receptor: DiscoveRx EC50. The method, then:
as §1

Series [4] deals with T1, human VPAC2. Nature of the series: Alpha screen cAMP in vitro potency, human VPAC2 receptor. It is filed as cell-based. The note with it: cAMP generation; single result from two analyses performed in a single run; read-out: Human VPAC2 Receptor: Alpha Screen EC50. The method in brief:
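This followed a 60 min stimulation of 50,000 enzyme-free-dissociated cells per point with acceptor beads in stimulation buffer.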

For series [5], the target named is T3, human PAC1. As to the kind of experiment: Filter binding assay, membranes of cells transiently transfected with human PAC1, 125I-labeled PACAP-27 tracer (Table 2). Also on record: expressed in transfected cells. The note with it: read-out: Human PAC1 Receptor Binding. The method in brief: as §2
The target of another series is T4, DPP-IV (Sus scrofa, UniProt P22411).
T4 construct: purchased Sigma
Nature of the series: DPP-IV HPLC assay: in vitro incubation with purified dipeptidyl-peptidase IV. It is filed as in vitro ADME, Porcine. The procedure: Part 1: Formulation of Selective VPAC2 Receptor Peptide Agonists: […]
Approximately 2 mg of lyophilized peptide is weighed and dissolved in approximately 1.6 mL de-ionized water. […] After incubation at room temperature for 30 minutes, 1/10th of the original volume 10×PBS is added. The pH is adjusted to between pH 7.2 and 7.6. The peptide solution is filtered through a 0.22 μm Millex-GV syringe filter (Millipore, Bedford Mass., USA). The peptide concentration is determined through absorption at 280 nm. The peptide concentration is then adjusted to 100 μM. The peptides are frozen at −20° C. for further use.
Part 2: In Vitro Incubation of Selective VPAC2 Receptor Peptide Agonists with Purified Dipeptidyl-Peptidase IV (DPP-IV):
The stability of selective VPAC2 receptor peptide agonists against proteolysis by DPP-IV is determined using 100 μL of a 100 μM peptide solution in 1×PBS. A 10 μL solution is removed and quenched with 40 μL of 0.1% trifluoroacetic acid (TFA)/20% acetonitrile (ACN). This solution (20 μL) is analyzed by reversed-phase HPLC. The reversed-phase analysis consists of a Zorbax 300SB-C8 column (3.5 micron, 4.6×50 mm, Alltech Associates, Inc., Deerfield Ill., USA) running a 15-40% B gradient over 15 minutes at 60° C. where A-buffer is 0.1% (v/v) TFA in water and B-buffer is 0.085% (v/v) TFA in ACN. The peak area is integrated. This peak area serves as an internal control as 100% intact peptide.
A 10 μL aliquot of a 1.12 mU/μL solution of DPP-IV (Sigma, St. Louis, La., USA) is added to 90 μL of a 100 μM solution of peptide, resulting in a substrate concentration of 90 μM peptide. The reaction mixture is then stored at 37° C. At various time-points, 10 μL of solution is removed, quenched with 40 μL 0.1% TFA/20% ACN, and analyzed by reversed-phase HPLC as described above. The remaining full length peptide concentration (nM) at each timepoint, except time=0, is calculated using following formula: [formula]
For the time=0 timepoint, the concentration (nM) is calculated using the following formula: [formula]

Several values for one entry are separate records, joined by “and”; a condition that tells them apart may be missing. Identical values can stand only once. Where no end group is shown, it is not given here. [ ]: non-standard residue; d: D form. The star is where a group is joined. hArg = N=C(N)NCCCC[C@H](N)C(=O)O; Hexanoyl = CCCCCC(=O)*

T4 sequence (P22411 whole entry): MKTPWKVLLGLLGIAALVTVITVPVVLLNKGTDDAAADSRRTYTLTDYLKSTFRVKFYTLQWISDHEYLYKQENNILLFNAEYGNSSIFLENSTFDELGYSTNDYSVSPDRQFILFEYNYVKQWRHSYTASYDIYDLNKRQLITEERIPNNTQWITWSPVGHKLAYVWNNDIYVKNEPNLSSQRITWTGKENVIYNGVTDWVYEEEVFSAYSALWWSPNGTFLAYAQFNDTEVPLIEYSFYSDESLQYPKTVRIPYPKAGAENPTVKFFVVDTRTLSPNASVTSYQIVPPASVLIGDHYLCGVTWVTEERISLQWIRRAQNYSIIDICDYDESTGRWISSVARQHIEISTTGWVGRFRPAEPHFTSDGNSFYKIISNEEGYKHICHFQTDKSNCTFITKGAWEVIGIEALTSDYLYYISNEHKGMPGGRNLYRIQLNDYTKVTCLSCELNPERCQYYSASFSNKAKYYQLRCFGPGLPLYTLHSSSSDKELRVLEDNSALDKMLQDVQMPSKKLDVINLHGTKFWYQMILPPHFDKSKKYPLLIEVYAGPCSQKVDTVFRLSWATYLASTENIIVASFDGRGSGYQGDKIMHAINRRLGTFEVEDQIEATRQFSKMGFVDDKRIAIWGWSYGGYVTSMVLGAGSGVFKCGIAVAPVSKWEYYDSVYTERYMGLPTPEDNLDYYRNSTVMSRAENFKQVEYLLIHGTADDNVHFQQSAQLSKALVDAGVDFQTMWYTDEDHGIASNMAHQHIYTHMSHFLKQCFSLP

The substance “H-HSDAVFTDNYTRAKAKVAAKKYLQSIKNKRYGGPSSGAPPPS [Agonist P94]” returned an EC50 on human VPAC2 [1] of more than 1000 nM. Further, the IC50 worked out at 71.5 nM at human VPAC2 [2] and 271 nM at human VPAC1.
Take “H-HSDAVFTDNYTRLRKQVAAKKYLQSIQNKRYGGPSSGAPPPS [Agonist P74]”: the EC50 at human PAC1 [3] worked out at 145 nM.
As to “H-HTDAVFTDNYTRLRKQVAAKKYLQSIKNKRYGGPSSGAPPPS [Agonist P45]”, the EC50 came out at 11.6 nM at human VPAC2 [1] and 315 nM on human PAC1 [3].
Consider “HGDAVFTDNYTRLRKQVAAKKYLQSIKNKRYGGPSSGAPPPS [Agonist P43]”, for which the EC50 at human PAC1 [3] is 104 nM.
On the same count and under the same terms, in the case of “HLDAVFTDNYTRLRKQVAAKKYLQSIKNKRYGGPSSGAPPPS [Agonist P46]” it was more than 1000 nM; in that of “HSDAFFTDNYTRLRKQVAAKKYLQSIKNKRYGGPSSGAPPPS [Agonist P58]”, 35.6 nM.
For “HSDATFTDNYTRLRKQVAAKKYLQSIKNKRYGGPSSGAPPPS [Agonist P62]”, the EC50 on human VPAC2 [1] was 13.2 nM; at human PAC1 [3] it was 137 nM.
As for “HSDAVFTDNWTRLRKQVAAKKYLQSIKNKRYGGPSSGAPPPS [Agonist P27]”, the EC50 on human PAC1 [3] was more than 100 nM.
“HSDAVFTDNYTRAAAKVAAKKYLQSIKNKRYGGPSSGAPPPS [Agonist P88]”: the concentration giving a half-maximal response (EC50) at human VPAC2 [1] is more than 1000 nM. In addition, the IC50 at human VPAC2 [2] was determined as 93.9 nM; on human VPAC1, 979 nM.
On the same counts, the results for “HSDAVFTDNYTRLRKQVAAKKYLQSIKNGRPSSGAPPPS [Agonist P92]” are 8.2 nM, 0.86 nM and 74.6 nM.
With “HSDAVFTDNYTRLRKQVAAKKYLQSIKNKRYGGPSSGAPPPS [Agonist P6]”, the EC50 is 3.19 nM on human VPAC2 [4] and more than 40 nM on human PAC1 [3]. Also, the IC50 stood at 2.58 nM on human VPAC2 [2], 195 nM at human VPAC1 and 334 nM at human PAC1 [5].
Regarding “HSDAVFTDNYTRLRKQVAAKKYLQSIKNRRYGGPSSGAPPPS [Agonist P25]”, the IC50 at human VPAC2 [2] was determined as 1.65 nM; on human VPAC1, 233 nM. At human PAC1 [3], the EC50 was 137 nM.
The matching figures for “HSDAVFTDNYTRLRKQVAAKKYLQSIKN[hArg]RYGGPSSGAPPPS [Agonist P24]”: 1.97 nM, 198 nM and more than 100 nM.
Take “HSDAVFTDNYTRLRKQVAASKYLQSIKNKRYGGPSSGAPPPS [Agonist P21]”: the EC50 is 11.6 nM at human VPAC2 [4] and more than 100 nM at human PAC1 [3]. In addition, the IC50 came out at 4.94 nM on human VPAC2 [2] and 385 nM on human VPAC1.
On to “HSDAWFTDNYTRLRKQVAAKKYLQSIKNKRYGGPSSGAPPPS [Agonist P69]”, for which the EC50 at human PAC1 [3] was determined as 104 nM.
On the same count and under the same terms, in the case of “HSDFVFTDNYTRLRKQVAAKKYLQSIKNKRYGGPSSGAPPPS [Agonist P52]” it was more than 1000 nM.
Consider “HSDIVFTDNYTRLRKQVAAKKYLQSIKNKRYGGPSSGAPPPS [Agonist P50]”, for which the EC50 at human VPAC2 [1] was 19.3 nM.
Regarding “HSDTVFTDNYTRLRKQVAAKKYLQSIKNKRYGGPSSGAPPPS [Agonist P54]”, the EC50 on human PAC1 [3] was more than 1000 nM.
On the same count and under the same terms, in the case of “HSDYVFTDNYTRLRKQVAAKKYLQSIKNKRYGGPSSGAPPPS [Agonist P51]” it was more than 1000 nM.
Consider “H[dA]DAVFTDNYTRLRKQVAAKKYLQSIKNKRYGGPSSGAPPPS [VPAC2-P47]”, for which the “Concentration (nM) of Remaining Main Peak by RP-HPLC after Incubation of Peptide with Purified Porcine DPP-IV” value is 9.0 nM at DPP-IV (Time = 0 hours at 37° C.), 7.9 nM on DPP-IV (Time = 2 hours at 37° C.), 6.1 nM at DPP-IV (Time = 6 hours at 37° C.) and 2.8 nM at DPP-IV (Time = 24 hours at 37° C.).
On the same counts, the results for “Hexanoyl-HSDAVFTDNYTRLLAKLALQKYLQSIKNKRYGGPSSGAPPPS [VPAC2-P119]” are 9.0 nM, 8.0 nM, 6.6 nM and 4.2 nM.
Turning to “Hexanoyl-HSDAVFTDNYTRLRKQVAAKKYLQSIKNKRYGGPSSGAPPPS [VPAC2-P31]”, the “Concentration (nM) of Remaining Main Peak by RP-HPLC after Incubation of Peptide with Purified Porcine DPP-IV” value on DPP-IV (Time = 0 hours at 37° C.) was 9.0 nM; at DPP-IV (Time = 2 hours at 37° C.) it was 8.0 nM and 7.0 nM and 6.7 nM; at DPP-IV (Time = 6 hours at 37° C.) it was 6.7 nM and 6.1 nM and 5.6 nM; at DPP-IV (Time = 24 hours at 37° C.) it was 2.2 nM and 2.6 nM and 3.9 nM.
In the case of “MHSDAVFTDNYTRLRKQVAAKKYLQSIKNKRYGGPSSGAPPPS [VPAC2-P104]”, the “Concentration (nM) of Remaining Main Peak by RP-HPLC after Incubation of Peptide with Purified Porcine DPP-IV” value on DPP-IV (Time = 0 hours at 37° C.) was 9.0 nM; at DPP-IV (Time = 2 hours at 37° C.) it was 7.8 nM; on DPP-IV (Time = 6 hours at 37° C.), 6.6 nM; at DPP-IV (Time = 24 hours at 37° C.) it was 4.1 nM.
Take “VPAC2-P44 (HVDAVFTDNYTRLRKQVAAKKYLQSIKNKRYGGPSSGAPPPS; not fully specified (N-terminus))”: the “Concentration (nM) of Remaining Main Peak by RP-HPLC after Incubation of Peptide with Purified Porcine DPP-IV” value with DPP-IV (Time = 0 hours at 37° C.) was 9.0 nM; with DPP-IV (Time = 2 hours at 37° C.) it was 6.4 nM and 7.9 nM and 4.5 nM and 6.5 nM.

The values are drawn from patent US20080026996A1, “Selective Vpac2 Receptor Reptide Agonists” (ELI LILLY AND COMPANY, priority 2004, published 2008).
